Some results are limits rather than exact numbers.

System in the first data set: not given
Assay: not given
Conditions: not given
`COC(=O)c1ccc(N2C(=O)C(O)=C(C(=O)c3ccc(C)cc3)C2c2ccc(C(C)(C)C)cc2)nc1` (stereo not drawn) gave a melting point of 287 to 288 °C.
`COc1ccc(C(=O)C2=C(O)C(=O)N(c3ccc(C)nn3)C2c2ccc(OC(F)(F)F)cc2)cn1` (stereo not drawn) came in with a melting point of 250 to 251 °C.
The same measure, in the same setting: the result for `CCOc1ccc(C2C(C(=O)c3ccc(C(C)C)cc3)=C(O)C(=O)N2c2ccc(C)nn2)nc1` (stereo not drawn) reads 198 to 199 °C; that for `CC(=O)c1ccc(C2C(C(=O)c3ccc(C(C)C)cc3)=C(O)C(=O)N2c2ccc(C)nn2)cc1` (stereo not drawn), 259 to 266 °C.
In the case of `Cc1ccc(N2C(=O)C(O)=C(C(=O)c3ccc(C(C)C)cc3)C2c2ccc(F)cc2)nn1` (stereo not drawn), the melting point lay in the range of 273 to 278 °C.
Still for that read-out and setting: the value for `Cc1ccc(N2C(=O)C(O)=C(C(=O)c3ccc(C(C)C)cc3)C2c2ccc(O)cc2)nn1` (stereo not drawn) was 222 to 224 °C; that for `Cc1ccc(N2C(=O)C(O)=C(C(=O)c3ccc(C(C)C)cc3)C2c2ccc(Cn3cnnn3)cc2)nn1` (stereo not drawn) was more than 300 °C.
The same measure, in the same setting: the value for `Cc1ccc(N2C(=O)C(O)=C(C(=O)c3ccc(C(C)C)cc3)C2c2ccc(Cn3cncn3)cc2)nn1` (stereo not drawn) was 223 °C; that for `Cc1ccc(N2C(=O)C(O)=C(C(=O)c3ccc(C(C)C)cc3)C2c2ccc(-n3cncn3)cc2)nn1` (stereo not drawn) was 284 °C; that for `Cc1ccc(N2C(=O)C(O)=C(C(=O)c3ccc(C(C)C)cc3)C2c2ccc(Cn3cccn3)cc2)nn1` (stereo not drawn) was 263 °C.
Molecule `Cc1ccc(N2C(=O)C(O)=C(C(=O)c3ccc(C(C)C)cc3)C2c2ccc(Cn3ccnn3)cc2)nn1` (stereo not drawn) showed a melting point of 293 °C.
Still for that read-out and setting: the value for `Cc1ccc(N2C(=O)C(O)=C(C(=O)c3ccc(C(C)C)cc3)C2c2ccc(Cn3ncnn3)cc2)nn1` (stereo not drawn) was 271 °C; that for `Cc1ccc(N2C(=O)C(O)=C(C(=O)c3ccc(OC(F)(F)F)cc3)C2c2ccc(Cn3ncnn3)cc2)nn1` (stereo not drawn) was 258 °C; that for `Cc1ccc(N2C(=O)C(O)=C(C(=O)c3ccc(OC(F)(F)F)cc3)C2c2ccc(Cn3ccnn3)cc2)nn1` (stereo not drawn) was 275 °C.
Regarding `Cc1ccc(N2C(=O)C(O)=C(C(=O)c3ccc(OC(F)(F)F)cc3)C2c2ccc(Cn3nccn3)cc2)nn1` (stereo not drawn), the melting point is 277 °C.
`Cc1ccc(N2C(=O)C(O)=C(C(=O)c3ccc(OC(F)(F)F)cc3)C2c2ccc(Cn3cnnn3)cc2)nn1` (stereo not drawn) yielded a melting point of more than 300 °C.
The molecule `Cc1ccc(N2C(=O)C(O)=C(C(=O)c3ccc(OC(F)(F)F)cc3)C2c2ccc(Cn3cncn3)cc2)nn1` (stereo not drawn) registered a melting point of 224 °C.
Consider `Cc1ccc(N2C(=O)C(O)=C(C(=O)c3cccc(Cl)c3)C2c2ccc(C(C)C)cc2)nn1` (stereo not drawn), for which the melting point is 271 °C.
For `Cc1ccc(N2C(=O)C(O)=C(C(=O)c3ccc(C(C)C)cc3)C2c2ccc(Oc3ccccn3)cc2)nn1` (stereo not drawn), the melting point stood at 280 °C.
Turning to `Cc1ccc(N2C(=O)C(O)=C(C(=O)c3ccc(C(C)C)cc3)C2c2ccc(-c3nnc(C)o3)cc2)nn1` (stereo not drawn), the melting point amounted to 293 °C.
On the same count and under the same terms, the result for `Cc1ccc(N2C(=O)C(O)=C(C(=O)c3ccccc3C)C2c2ccc(C(C)C)cc2)nn1` (stereo not drawn) reads 221 °C; that for `COc1cccc(C2C(C(=O)c3ccc(C)cc3)=C(O)C(=O)N2c2ccc(C)nn2)c1` (stereo not drawn), 265 °C.
Turning to `COc1ccc(C2C(C(=O)c3ccc(C)cc3)=C(O)C(=O)N2c2ccc(C)nn2)cc1` (stereo not drawn), the melting point was 266 °C.
With `COc1ccc(C(=O)C2=C(O)C(=O)N(c3ccc(C)nn3)C2c2ccc(OC)cc2)cc1` (stereo not drawn), the melting point amounted to 259 °C.
`Cc1ccc(C(=O)C2=C(O)C(=O)N(c3ccc(C)nn3)C2c2cccc(C(F)(F)F)c2)cc1` (stereo not drawn) yielded a melting point of 232 °C.
As to `COC(=O)c1ccc(N2C(=O)C(O)=C(C(=O)c3ccc(C)cc3)C2c2ccc(C(C)C)cc2)nc1` (stereo not drawn), the melting point fell in the range of 264 to 266 °C.
On to `COc1ccccc1C1C(C(=O)c2ccc(C)cc2)=C(O)C(=O)N1c1ccc(C)nn1` (stereo not drawn), for which the melting point was in the range of 211 to 213 °C.
For `Cc1cccc(C(=O)C2=C(O)C(=O)N(c3ccc(C)nn3)C2c2ccc(C(C)C)cc2)c1` (stereo not drawn), the melting point fell in the range of 245 to 250 °C.
In turn, `Cc1ccc(C(=O)C2=C(O)C(=O)N(c3ccc(C(C)C)nn3)C2c2ccc(C(C)C)cc2)cc1` (stereo not drawn) had a melting point of 269 to 270 °C.
Consider `Cc1ccc(N2C(=O)C(O)=C(C(=O)c3ccc(C(C)C)cc3)C2c2ccc(N3CCN(C)CC3)cc2)nn1` (stereo not drawn), for which the melting point is 198 to 203 °C.
The same measure, in the same setting: the value for `Cc1ccc(N2C(=O)C(O)=C(C(=O)c3ccc(C(C)C)cc3)C2c2ccc(OCCN3CCOCC3)cc2)nn1` (stereo not drawn) was 256 °C.
Consider `Cc1ccc(C(=O)C2=C(O)C(=O)N(c3ccc(C)nn3)C2c2ccc(OC3CCN(C)CC3)cc2)cc1` (stereo not drawn), for which the melting point was in the range of 259 to 260 °C.
The molecule `COc1ccc(C2C(C(=O)c3ccc(N4CCOCC4)cc3)=C(O)C(=O)N2c2ccc(C)nn2)cc1` (stereo not drawn) registered a melting point of 232 °C.
For the molecule `Cc1ccc(N2C(=O)C(O)=C(C(=NOCC(=O)O)c3ccc(C(C)C)cc3)C2c2ccc(C(C)C)cc2)nn1` (stereo not drawn), the melting point came to 234 °C.
The molecule `Cc1ccc(C(=O)C2=C(O)C(=O)N(c3ccc(C)nn3)C2c2ccc(C)cc2C)cc1` (stereo not drawn) had a melting point of 254 °C.
As for `Cc1ccc(C(=O)C2=C(O)C(=O)N(c3ccc(C)nn3)C2c2ccc(OCCN(C)C)cc2)cc1` (stereo not drawn), the melting point is 263 to 266 °C.
In the case of `Cc1ccc(C(=O)C2=C(O)C(=O)N(c3ccc(C(F)(F)F)cn3)C2c2ccc(C(C)C)cc2)cc1` (stereo not drawn), the melting point is 255 to 257 °C.
In turn, `Cc1ccc(C(=O)C2=C(O)C(=O)N(c3ccc(C)nn3)C2c2ccc(N3CCN(CCN(C)C)CC3)cc2)cc1` (stereo not drawn) yielded a melting point of 185.3 °C.
For `COc1ccc(COc2ccc(C(=O)C3=C(O)C(=O)N(c4ccc(C)nn4)C3c3ccc(OC(F)(F)F)cc3)cc2)cc1` (stereo not drawn), the melting point lay in the range of 206 to 209 °C.
`COC1=C(C(=O)c2ccc(C)cc2)C(c2ccc(OC(F)(F)F)cc2)N(c2ccc(C)nn2)C1=O` (stereo not drawn) came in with a melting point of 206 to 207 °C.
`COC1=C(C(=O)c2ccc(C)cc2)C(c2ccc(C(C)C)cc2)N(c2ccc(C)nn2)C1=O` (stereo not drawn) yielded a melting point of 248 to 249 °C.
Same read-out and setting: the result for `Cc1ccc(N2C(=O)C(O)=C(C(=O)c3ccc(-c4ccccn4)cc3)C2c2ccc(OC(F)(F)F)cc2)nn1` (stereo not drawn) reads 247 to 249 °C.
Consider `Cc1ccc(N2C(=O)C(O)=C(C(=NOCC(=O)O)c3ccc(C(C)C)cc3)C2c2ccc(OC(F)(F)F)cc2)nn1` (mixture of isomers) [Example 83, [[4-Hydroxy-1-(6-methyl-pyridazin-3-yl)-5-oxo-2-(4-trifluoromethoxy-phenyl)-2,5-dihydro-1H-pyrrol-3-yl]-(4-isopropyl-phenyl)-methyleneaminooxy]-acetic acid], for which the melting point is 227 °C.
On the same count and under the same terms, the value for `COCCON=C(C1=C(O)C(=O)N(c2ccc(C)nn2)C1c1ccc(OC(F)(F)F)cc1)c1ccc(C(C)C)cc1` (mixture of isomers) [Example 84, 3-Hydroxy-4-{(4-isopropyl-phenyl)-[2-methoxy-ethoxyimino]-methyl}-1-(6-methyl-pyridazin-3-yl)-5-(4-trifluoromethoxy-phenyl)-1,5-dihydro-pyrrol-2-one] was 115 to 118 °C.

In the next data set the target is T1, HCV NS5B genotype 1b (Hepatitis C virus genotype 1b, UniProt Q9WMX2).
T1 construct: The protein was expressed with a 21 amino acid C-terminal deletion to remove transmembrane domain; expressed in transfected cells; host or cells: Huh-7
The data set is described as follows: 3D-SCREEN assay (NS5B 3D-Screen platform, luciferase reporter gene). The format is cell-based. To be noted: EC50_3DS_NS5B, Table 1, 3D-SCREEN assay results; Huh-7 cells, 24 hours with compound, firefly luciferase reporter. The text has this: cDNA encoding HCV NS5B genotype 1b, was cloned in frame with Gal4-DNA Binding Domain. The protein was expressed with a 21 amino acid C-terminal deletion to remove transmembrane domain. Expression of NS5BΔ21/Gal4 DBD fusion protein was under control of SV40 early promoter. 3D-Sensor peptide was cloned in frame with VP16 activation domain. Expression of 3D-Sensor/VP16 AD fusion protein was under control of CMV promoter. Expression of the firefly luciferase reporter gene was inducible by the [Target protein/conformation sensitive peptide/VP16AD] complex.
It is a single-target, cell based assay. Briefly, expression of a reporter gene depends on the interaction of a short peptide, thereafter named 3D-Sensor, and native conformation of the target protein. Whenever the conformation of the target protein is modified, interaction between 3D-sensor and target protein is disrupted and reporter gene is not expressed anymore. Conformation modifiers are identified by loss of expression of reporter gene. NS5B 3D-Screen platform was generated in Huh-7 cell lines by transient transfection of three expression vectors encoding respectively
(i) HCV NS5BΔ21/Gal4-DBD fusion protein
(ii) the 3D-sensor peptide I4/VP16 fusion protein
(iii) the firefly luciferase reporter gene
Huh-7 cells were dissociated the day before transfection and seeded in T175 flasks at a density of 10^7 cells in 30 ml culture medium. Equimolar ratios of vectors were transfected in cell according to optimized jetPEI transfection protocol (PolyPlus Transfection, Illkirch, France) and 10 μg total DNA/10^6 cells. Transfection was performed for 2 hours at 37° C. and 5% CO2 in a humidified atmosphere. After two hours cells were dissociated and seeded in 96 wells plates at a density of 25,000 cells per well and 90 μl culture medium. 10 μl of compounds to be tested were added 2 hours after seeding. Final concentration of DMSO was 1%. Cells were incubated in the presence of compounds for 24 hours after which expression of firefly luciferase reporter gene was quantified. Briefly, culture medium was removed and cells were lysed by addition of 100 μl of lysis buffer containing 125 mM Tris Phosphate ph 7.8, 10 mM EDTA, 5 mM DTT, 50% glycerol and 5% Triton. Plates were vortexed 10 min at 1300 rpm. Cell lysat was transferred in OpaqueWhite Assay 96 well Flat Bottom plates. 100 μl of luciferin solution 1× were added to each well. Luciferin solution contained 40 mM Tris Phosphate ph 7.8, 0.2 mM EDTA, 67 mM DTT, 2.14 mM MgCl2, 5.4 mM MgSO4, 4.7×10^−4 M luciferin, 5.3×10^−4 M ATP and 2.7×10^−4 M Acetyl co enzyme A. Luminescence was immediately measured with Berthold Microlumat Plus LB 96V luminometer with an integration of 0.5 sec. Inhibition was calculated using the formula: % inhibition=(1−(read/average max))*100. Average max=signal in absence of compound
Consider `Cc1ccc(N2C(=O)C(O)=C(C(=NOCC(=O)O)c3ccc(C(C)C)cc3)C2c2ccc(OC(F)(F)F)cc2)nn1` (mixture of isomers) [Example 83, [[4-Hydroxy-1-(6-methyl-pyridazin-3-yl)-5-oxo-2-(4-trifluoromethoxy-phenyl)-2,5-dihydro-1H-pyrrol-3-yl]-(4-isopropyl-phenyl)-methyleneaminooxy]-acetic acid], for which the EC50 came out at 8 µM.
For the molecule `COCCON=C(C1=C(O)C(=O)N(c2ccc(C)nn2)C1c1ccc(OC(F)(F)F)cc1)c1ccc(C(C)C)cc1` (mixture of isomers) [Example 84, 3-Hydroxy-4-{(4-isopropyl-phenyl)-[2-methoxy-ethoxyimino]-methyl}-1-(6-methyl-pyridazin-3-yl)-5-(4-trifluoromethoxy-phenyl)-1,5-dihydro-pyrrol-2-one], the EC50 was 3 µM.

Staying with this data set, now noted: EC50_3DS_NS5B, Table 2, titled Replicon assay results.
In the case of `Cc1ccc(N2C(=O)C(O)=C(C(=O)c3ccc(C(C)C)cc3)[C@@H]2c2ccc(C(F)(F)F)nc2)nn1` [Example 194, 3-hydroxy-4-(4-isopropyl-benzoyl)-1-(6-methyl-pyridazin-3-yl)-5(S)-(6-trifluoromethyl-pyridin-3-yl)-1,5-dihydro-pyrrol-2-one], the EC50 was less than 10 µM.
As to `Cc1ccc(N2C(=O)C(O)=C(C(=O)c3ccc(C(C)C)cc3)[C@@H]2c2ccc(C(C)(F)F)cc2)nn1` [Example 197, 5(S)-[4-(1,1-difluoro-ethyl)-phenyl]-3-hydroxy-4-(4-isopropyl-benzoyl)-1-(6-methyl-pyridazin-3-yl)-1,5-dihydro-pyrrol-2-one], the EC50 is less than 10 µM.

Source of the values: patent publication US20120128630A1, “1-(6 MEMBERS AZO-HETEROCYCLIC)-PYRROLIN-2-ONE COMPOUNDS AS INHIBITORS OF HEPATITIS C NS5B POLYMERASE, THE PHARAMACEUTICAL COMPOSITION THEREOF AND THEIR THERAPEUTIC USE” (priority 2009, published 2012).
